Experimental data taken from patent US6737425B1, “N,N-substituted cyclic amine derivatives” (Eisai Co., Ltd., priority 1998, dated 2004).

Columns and labels:
mice in a formalin test = test: Antalgic effect (II) on mice in a formalin test (comparison with morphine and indomethacin); format: in vivo; conditions: for average left hind leg-licking time, Mean: formalin 5 minutes later
Procedure: Antalgic Effect (II) on Mice in a Formalin Test
The typical example of the compound of the present invention (the compound in Example 1) was compared with morphine and indomethacin in the same manner as in Pharmacological Experimental Example 5 above.
20.4 mg of the compound of the present invention was weighed, and 10.2 ml of 5.28% mannitol was added thereto to prepare 2 mg/ml (20 mg/kg) solution. Then, 3.8 ml of 5.28% mannitol was added to 3.8 ml of the 2 mg/ml solution to prepare 1 mg/ml (10 mg/kg) solution. Finally, 2.5 ml of 5.28% mannitol was added to 2.5 ml of the 1 mg/ml solution to prepare 0.5 mg/ml (5 mg/kg) solution. The test compound was weighed and prepared on the day when the experiment was conducted.
b-1) Morphine 17.0 mg of morphine purchased as a reagent was weighed, and 5.67 ml physiological saline was added thereto to form 3 mg/ml (30 mg/kg) solution. Then, 2.6 ml physiological saline was added to 1.3 ml of the 3 mg/ml solution to prepare 1 mg/ml (10 mg/kg) solution. Finally, 2.1 ml physiological saline was added to 0.9 ml of the 1 mg/ml solution to prepare 0.3 mg/ml (3 mg/kg) solution. The test compound was weighed and prepared on the day when the experiment was conducted.
12.9 mg of indomethacin purchased as a reagent was weighed, and 12.9 ml of 0.5% methyl cellulose (MC) was added thereto to form 1 mg/ml (10 mg/kg) suspension. Then, 2.24 ml of 0.5% MC was added to 0.96 ml of the 1 mg/ml suspension to prepare 0.3 mg/ml (3 mg/kg) suspension. Finally, 1.6 ml of 0.5% MC was added to 0.8 ml of the 0.3 mg/ml suspension to prepare 0.1 mg/ml (1 mg/kg) suspension. The test compound was weighed and prepared on the day when the experiment was conducted.
The treatment group by the compound of the present invention consisted of 4 groups in total, that is, a control group, a 5 mg/kg compound administration group, a 10 mg/kg compound administration group, and a 20 mg/kg compound administration group, and each group consisted of 5 animals.
The control group was given 0.1 ml of 5.28% mannitol per 10 g of the body weight via the tail vein. The compound of the present invention was administered via the tail vein at each concentration (0.5 mg/ml, 1 mg/ml, and 2 mg/ml) in an volume of 0.1 ml per 10 g of the body weight into the 5 mg/kg group, 10 mg/kg group and 20 mg/kg group, respectively.
The treatment group by morphine consisted of 4 groups in total, that is, a control group, a 3 mg/kg morphine administration group, a 10 mg/kg morphine administration group, and a 30 mg/kg morphine administration group, and each group consisted of 5 animals.
The control group was orally given 0.1 ml of physiological saline per 10 g of the body weight. Morphine was orally administered at each concentration (0.3 mg/ml, 1 mg/ml, and 3 mg/ml) in a volume of 0.1 ml per 10 g of the body weight into the 3 mg/kg group, 10 mg/kg group and 30 mg/kg group, respectively.
The treatment group by indomethacin consisted of 4 groups in total, that is, a control group, a 1 mg/kg indomethacin administration group, a 3 mg/kg indomethacin administration group, and a 10 mg/kg indomethacin administration group, and each group consisted of 5 animals.
The control group was orally given 0.1 ml of 0.5% MC per 10 g of the body weight. Indomethacin was orally administered at each concentration (0.1 mg/ml, […], and 1 mg/ml) in a volume of 0.1 ml per 10 g of the body weight into the 1 mg/kg group, 3 mg/kg group and 10 mg/kg group, respectively.
5.28% mannitol was administered via the tail vein into each group given the compound of the present invention or into the control group, and the animals were placed in a transparent plastic observation cage. 5 minutes later, 20 μl of 3% formalin was subcutaneously administered into the bottom of the left hind leg of each mouse. The duration of the behavior of mouse's licking the left hind leg after administration of formalin was measured for 5 minutes and used as an indication of pain. The duration was expressed in second. […]

[1] = system: glutamic acid release from rat cerebral cortex slices; test: Inhibitory activity on glutamic acid release (cerebral cortex slices, high-conc. KCl); format: cell-based; conditions: glutamic acid release induced with 50 mM KCl, HPLC
Procedure: Inhibitory Activity on Glutamic Acid Release
Cerebral cortexes were isolated from SD strain male rats (8-week-old) and used to prepare 300 μm×300 μm slices by use of a slice chopper. The prepared slices were incubated at 37° C. for 30 minutes in solution C (120 mM NaCl, 4 mM KCl, 10 mM MgSO4, 16 mM NaHCO3, 10 mM glucose, 1 mM NaH2PO4, 10 mM HEPES-NaOH pH 7.4) in the presence of 95% O2/5% CO2. Thereafter, solution C was exchanged with fresh one, followed by further incubation for 30 minutes.
The cerebral cortex slices were incubated in a 24-wells plate for cell culture according to a multi-well method (Brain Res., 402, 255-263, 1987), and the release of glutamic acid was induced with 50 mM KCl. Solution D (120 mM NaCl, 4 mM KCl, 1.2 mM CaCl2, 1 mM MgSO4, 16 mM NaHCO3, 10 mM glucose, 1 mM NaH2PO4, 10 mM HEPES-NaOH pH 7.4) was aerated with 95% O2/5% CO2 and kept at 37° C. and used in this experiment. 50 mM KCl containing the same total amount of K^+ and Na^+ was prepared. Slices corresponding to 1 to 2 mg protein were placed on an upper cup provided with a mesh at the bottom, and 1.3 ml solution C or 50 mM KCl solution was introduced into a lower well, and the upper cup was transferred to a new well. 20 minutes before and 5 minutes after reaction was intiated, the test compound was added to solution D or 50 mM KCl.
Glutamic acid was quantified by HPLC using fluorescent etor (Ex. 330 nm Em. […]). The eluting solvent used was prepared by diluting 150 ml sodium citrate buffer for automatic amino acid analysis (Wako Pure Chemical Industries) 10-fold with distilled water, then adding MgCl2 thereto at the final concentration of 50 mM, and further diluting it twice with acetonitrile. The flow rate was 2.0 ml/min. The column used was Asahipak (ES-502N Denko, K. K.). The glutamic acid was converted into a derivative by addition, to 50 μl sample, of 50 μl deriving agent (10 mg o-phthalaldehyde/500 μl MeOH, 10 μl b-mercaptopropionic acid, 0.15 M sodium borate buffer pH 9.5, 100 μl) followed by stirring (Neuroscience Lett., 96, 202-206, 1989).

## CC(C)C(C#N)(CCCN1CCN(CCOc2ccc(F)cc2)CC1)c1ccccc1 (centres unmarked) [Example 1, 1-[(4-Cyano-5-methyl-4-phenyl)hexyl]-4-[2-(4-fluorophenoxy)ethyl]piperazine]
Mice in a formalin test; 5 mg/kg i.v. (tail vein)
  average left hind leg-licking time, Mean: 49.4 s
Mice in a formalin test; 10 mg/kg i.v. (tail vein)
  average left hind leg-licking time, Mean: 23.6 s
Mice in a formalin test; 20 mg/kg i.v. (tail vein)
  average left hind leg-licking time, Mean: 2.2 s
Mice in a formalin test; overall conclusion of the comparison
  antalgic effect in the formalin test: excellent effect similar to that of morphine
[1]
  IC50: 3.5 µM
